In PubChem BioAssay (NCI):
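Briefly, cells in 96-well plates were exposed to five compound concentrations for 48 h, and endpoints were estimated by linear interpolation. GI50 = concentration required for 50% inhibition of growth. At the TGI there is no net growth.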

Assays:
Assay in all cases: growth of human tumour cells (NCI), 48 h
786-0 renal = tested on: 786-0 renal
A498 renal = tested on: A498 renal
A549 NSCLC = tested on: A549 NSCLC
ACHN renal = tested on: ACHN renal
BT-549 breast = tested on: BT-549 breast
CAKI-1 renal = tested on: CAKI-1 renal
CCRF-CEM leukemia = tested on: CCRF-CEM leukemia
COLO 205 colon = tested on: COLO 205 colon
DU-145 prostate = tested on: DU-145 prostate
EKVX NSCLC = tested on: EKVX NSCLC
HCC-2998 colon = tested on: HCC-2998 colon
HCT-116 colon = tested on: HCT-116 colon
HCT-15 colon = tested on: HCT-15 colon
HL-60(TB) leukemia = tested on: HL-60(TB) leukemia
HOP-62 NSCLC = tested on: HOP-62 NSCLC
HOP-92 NSCLC = tested on: HOP-92 NSCLC
HS 578T breast = tested on: HS 578T breast
HT29 colon = tested on: HT29 colon
IGROV1 ovarian = tested on: IGROV1 ovarian
K-562 leukemia = tested on: K-562 leukemia
KM12 colon = tested on: KM12 colon
LOX IMVI melanoma = tested on: LOX IMVI melanoma
M14 melanoma = tested on: M14 melanoma
MALME-3M melanoma = tested on: MALME-3M melanoma
MCF7 breast = tested on: MCF7 breast
MDA-MB-231 breast = tested on: MDA-MB-231 breast
MDA-MB-435 = tested on: MDA-MB-435
MDA-MB-468 breast = tested on: MDA-MB-468 breast
MOLT-4 leukemia = tested on: MOLT-4 leukemia
NCI-H226 lung = tested on: NCI-H226 lung
NCI-H23 lung = tested on: NCI-H23 lung
NCI-H460 lung = tested on: NCI-H460 lung
NCI-H522 lung = tested on: NCI-H522 lung
NCI/ADR-RES ovarian = tested on: NCI/ADR-RES ovarian
OVCAR-3 ovarian = tested on: OVCAR-3 ovarian
OVCAR-4 ovarian = tested on: OVCAR-4 ovarian
OVCAR-5 ovarian = tested on: OVCAR-5 ovarian
OVCAR-8 ovarian = tested on: OVCAR-8 ovarian
PC-3 prostate = tested on: PC-3 prostate
RPMI-8226 leukemia = tested on: RPMI-8226 leukemia
RXF 393 renal = tested on: RXF 393 renal
SF-268 CNS = tested on: SF-268 CNS
SF-295 CNS = tested on: SF-295 CNS
SF-539 CNS = tested on: SF-539 CNS
SK-MEL-2 melanoma = tested on: SK-MEL-2 melanoma
SK-MEL-28 melanoma = tested on: SK-MEL-28 melanoma
SK-MEL-5 melanoma = tested on: SK-MEL-5 melanoma
SK-OV-3 ovarian = tested on: SK-OV-3 ovarian
SN12C renal = tested on: SN12C renal
SNB-19 CNS = tested on: SNB-19 CNS
SNB-75 CNS = tested on: SNB-75 CNS
SR leukemia = tested on: SR leukemia
SW-620 colon = tested on: SW-620 colon
T-47D breast = tested on: T-47D breast
TK-10 renal = tested on: TK-10 renal
U251 CNS = tested on: U251 CNS
UACC-257 melanoma = tested on: UACC-257 melanoma
UACC-62 melanoma = tested on: UACC-62 melanoma
UO-31 renal = tested on: UO-31 renal

O=C(NO)c1ccc(CNc2nc(-c3ccccc3)c3ccccc3n2)cc1
GI50 (786-0 renal): 2.75 µM
TGI (786-0 renal): 11.8 µM
GI50 (A498 renal): 1.68 µM
TGI (A498 renal): 5.45 µM
GI50 (A549 NSCLC): 3.23 µM
TGI (A549 NSCLC): > 13.4 µM
GI50 (ACHN renal): 2.05 µM
TGI (ACHN renal): 5.55 µM
GI50 (BT-549 breast): 3.99 µM
TGI (BT-549 breast): 15.8 µM
GI50 (CAKI-1 renal): 2.5 µM
TGI (CAKI-1 renal): 8.52 µM
GI50 (CCRF-CEM leukemia): 2.73 µM
TGI (CCRF-CEM leukemia): > 28 µM
GI50 (COLO 205 colon): 1.69 µM
TGI (COLO 205 colon): 3.81 µM
GI50 (DU-145 prostate): 2.78 µM
TGI (DU-145 prostate): > 28 µM
GI50 (EKVX NSCLC): 3.59 µM
TGI (EKVX NSCLC): > 17 µM
GI50 (HCC-2998 colon): 1.82 µM
TGI (HCC-2998 colon): 5.63 µM
GI50 (HCT-116 colon): 2.04 µM
TGI (HCT-116 colon): 8.01 µM
GI50 (HCT-15 colon): 2.85 µM
TGI (HCT-15 colon): 9.1 µM
GI50 (HL-60(TB) leukemia): 3.59 µM
TGI (HL-60(TB) leukemia): > 28 µM
GI50 (HOP-62 NSCLC): 2.88 µM
TGI (HOP-62 NSCLC): 12.2 µM
GI50 (HOP-92 NSCLC): 1.95 µM
TGI (HOP-92 NSCLC): 6.6 µM
GI50 (HS 578T breast): 2.47 µM
TGI (HS 578T breast): > 28 µM
GI50 (HT29 colon): 2.46 µM
TGI (HT29 colon): > 23.3 µM
GI50 (IGROV1 ovarian): 2.29 µM
TGI (IGROV1 ovarian): 6.96 µM
GI50 (K-562 leukemia): 3.05 µM
TGI (K-562 leukemia): > 28 µM
GI50 (KM12 colon): 3.69 µM
TGI (KM12 colon): > 12.5 µM
GI50 (LOX IMVI melanoma): 2.08 µM
TGI (LOX IMVI melanoma): 5.35 µM
GI50 (M14 melanoma): 3.2 µM
TGI (M14 melanoma): > 13.5 µM
GI50 (MALME-3M melanoma): 1.36 µM
TGI (MALME-3M melanoma): 4.72 µM
GI50 (MCF7 breast): 3.22 µM
TGI (MCF7 breast): > 28 µM
GI50 (MDA-MB-231 breast): 2.44 µM
TGI (MDA-MB-231 breast): 8.22 µM
GI50 (MDA-MB-435): 2.4 µM
TGI (MDA-MB-435): > 9.06 µM
GI50 (MDA-MB-468 breast): 1.49 µM
TGI (MDA-MB-468 breast): 5.41 µM
GI50 (MOLT-4 leukemia): 3.01 µM
TGI (MOLT-4 leukemia): > 28 µM
GI50 (NCI-H226 lung): 2.67 µM
TGI (NCI-H226 lung): 14.6 µM
GI50 (NCI-H23 lung): 2.24 µM
TGI (NCI-H23 lung): 7.72 µM
GI50 (NCI-H460 lung): 3.04 µM
TGI (NCI-H460 lung): > 17.1 µM
GI50 (NCI-H522 lung): 1.85 µM
TGI (NCI-H522 lung): 8.25 µM
GI50 (NCI/ADR-RES ovarian): 0.159 µM
TGI (NCI/ADR-RES ovarian): 0.954 µM
GI50 (OVCAR-3 ovarian): 2.68 µM
TGI (OVCAR-3 ovarian): 8.7 µM
GI50 (OVCAR-4 ovarian): 5.4 µM
TGI (OVCAR-4 ovarian): > 20.6 µM
GI50 (OVCAR-5 ovarian): 1.55 µM
TGI (OVCAR-5 ovarian): 4.87 µM
GI50 (OVCAR-8 ovarian): 2.65 µM
TGI (OVCAR-8 ovarian): > 12.4 µM
GI50 (PC-3 prostate): 4.84 µM
TGI (PC-3 prostate): 27.3 µM
GI50 (RPMI-8226 leukemia): 2.36 µM
TGI (RPMI-8226 leukemia): > 28 µM
GI50 (RXF 393 renal): 1.23 µM
TGI (RXF 393 renal): 3.58 µM
GI50 (SF-268 CNS): 3.57 µM
TGI (SF-268 CNS): 15.2 µM
GI50 (SF-295 CNS): 1.84 µM
TGI (SF-295 CNS): 4.69 µM
GI50 (SF-539 CNS): 2.77 µM
TGI (SF-539 CNS): > 11.3 µM
GI50 (SK-MEL-2 melanoma): 1.42 µM
TGI (SK-MEL-2 melanoma): 7.54 µM
GI50 (SK-MEL-28 melanoma): 2.42 µM
TGI (SK-MEL-28 melanoma): 8.17 µM
GI50 (SK-MEL-5 melanoma): 1.62 µM
TGI (SK-MEL-5 melanoma): 3.32 µM
GI50 (SK-OV-3 ovarian): 2.15 µM
TGI (SK-OV-3 ovarian): 6.25 µM
GI50 (SN12C renal): 3.09 µM
TGI (SN12C renal): 12 µM
GI50 (SNB-19 CNS): 2.83 µM
TGI (SNB-19 CNS): 9.91 µM
GI50 (SNB-75 CNS): 2.36 µM
TGI (SNB-75 CNS): > 12 µM
GI50 (SR leukemia): > 18.1 µM
TGI (SR leukemia): > 28 µM
GI50 (SW-620 colon): 2.09 µM
TGI (SW-620 colon): 5.91 µM
GI50 (T-47D breast): 2.28 µM
TGI (T-47D breast): 21.7 µM
GI50 (TK-10 renal): 2.12 µM
TGI (TK-10 renal): > 19.8 µM
GI50 (U251 CNS): 2.37 µM
TGI (U251 CNS): 8.78 µM
GI50 (UACC-257 melanoma): 2.02 µM
TGI (UACC-257 melanoma): > 16.5 µM
GI50 (UACC-62 melanoma): 1.34 µM
TGI (UACC-62 melanoma): 3.16 µM
GI50 (UO-31 renal): 1.99 µM
TGI (UO-31 renal): 6.71 µM
